The values that follow come from article PMC5349656, “Characterization of Hedgehog Acyltransferase Inhibitors Identifies a Small Molecule Probe for Hedgehog Signaling by Cancer Cells” (ACS Chemical Biology, 2016).

Assay [1] deals with T1, Hedgehog acyltransferase (Hhat) (Homo sapiens, UniProt Q5VTY9). Description: YnPal palmitoylation tagging in HEK-293 Shh+ cells, spike-in SILAC quantitative proteomics (Western blot TC50 […]). The class given is cell-based. In general terms: A western blot detects proteins with antibodies after separation by electrophoresis.
Assay [2] concerns the target T1, Hedgehog acyltransferase (Hhat). Description: YnPal palmitoylation profiling in cells by quantitative proteomics. It is filed as cell-based.

T1 sequence (Q5VTY9 whole entry): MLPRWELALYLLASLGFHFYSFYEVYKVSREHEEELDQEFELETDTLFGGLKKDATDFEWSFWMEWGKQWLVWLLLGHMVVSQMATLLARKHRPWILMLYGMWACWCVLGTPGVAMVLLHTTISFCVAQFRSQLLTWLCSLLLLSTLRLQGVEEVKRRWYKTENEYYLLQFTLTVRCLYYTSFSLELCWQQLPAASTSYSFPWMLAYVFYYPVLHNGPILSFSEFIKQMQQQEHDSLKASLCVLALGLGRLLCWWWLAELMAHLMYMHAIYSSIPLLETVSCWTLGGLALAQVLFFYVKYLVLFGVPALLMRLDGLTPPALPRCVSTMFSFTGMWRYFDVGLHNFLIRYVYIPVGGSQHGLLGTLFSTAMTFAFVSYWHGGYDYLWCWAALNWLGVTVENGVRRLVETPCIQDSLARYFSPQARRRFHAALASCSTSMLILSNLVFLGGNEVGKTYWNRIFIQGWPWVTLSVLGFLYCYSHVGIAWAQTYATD

For orientation: IC50 means the concentration needed to halve the response being measured. A high value points to weaker potency in that assay. In the case of `CCC(C)CNCC(=O)N1CCc2sccc2C1c1cccc(C)n1` (racemic) [RUSKI-201], in assay [1], 730 ± 90 nM corresponded to half-maximal inhibition (IC50).

On to `C=CCNCC(=O)N1CCc2sccc2C1COc1ccc(Cl)cc1` (centres unmarked) [RUSKI-41], for which the “YnPal palmitoylation profiling in cells by quantitative proteomics” value in assay [2] is “RUSKI-41 also inhibited only Hh palmitoylation (Supporting Information Figure S6, Table S2)”.
